Experimental data: US6482806B1, “Product of heat treatment of uronic acid, food, drink, or drug including the product” (Takara Shuzo Co., Ltd., priority 1996, dated 2002)
*1 amine or outer side, *2 acyl side, *3 side chain or, on linkers, in order; H or OH if unused. Where a SMILES comes first, the peptide text is derived from it. Bridges are numbered along the chain shown (N, C = ends). Roman numbers before positions name the chains, in order. [ ]: non-standard residue; d: D form. Actinocin(9to1) = Cc1c2oc3c(C)ccc(C(=O)[*:1])c3nc-2c(C(=O)[*:2])c(N)c1=O; NMeV = CN[C@H](C(=O)O)C(C)C; Sar = CNCC(=O)O

Key:
[1] = tested on: Human promyelocytic leukemia cells HL-60 (ATCC CRL-1964); experiment: Apoptosis induction in HL-60 cells, optical microscope (Example 1); assay type: cell-based; conditions: 0.1 ml of aqueous solution (0.1 mg/ml) added, 16 hours
Procedure: Human promyelocytic leukemia cells HL-60 (ATCC CRL-1964) were incubated in an RPMI 1640 medium (manufactured by Nissui) containing 10% of fetal calf serum (manufactured by Gibco) treated at 56° C. for 30 minutes and then suspended in an ASF 104 medium (manufactured by Ajinomoto) to make the cell concentration 5×10^5cells/9 ml.
To this suspension was added 1 ml of the heat-treated pectin solution and the mixture was incubated at 37° C. for 16 hours in the presence of 5% of carbon dioxide. For the sake of confirmation, the same incubation as above was conducted except that 0.1 ml of aqueous solution (0.1 mg/ml) of actinomycin D (manufactured by Sigma) which was known as an apoptosis-inducing reagent and 0.9 ml of a physiological saline solution were used instead of the above-mentioned pectin solution.
Incidentally, in the control where the cells to which 1 ml of physiological saline solution was added were incubated, such phenomena were not observed.

[2] = tested on: human promyelocytic leukemia cells (HL-60) (ATCC CCL-240); experiment: Apoptosis-inducing activity to HL-60 cells, microscope and trypan blue count (method of Example 7); assay type: cell-based; conditions: 0.05 ml of aqueous solution (0.1 mg/ml) added, 16 hours
Procedure: Thus, HL-60 (ATCC CCL-240) were incubated in an RPMI 1640 medium (manufactured by Nissui) containing 10% of fetal calf serum (manufactured by Gibco) treated at 56° C. for 30 minutes and then suspended in an RPMI 1640 medium to make the cell concentration 2.5×10^5 cells/4.5 ml.
To 4.5 ml of this suspension was added 0.5 ml of the above-mentioned heat-treated pectin solution and the mixture was incubated at 37° C. for 16 hours in the presence of 5% of carbon dioxide. For the sake of confirmation, the same incubation as above was conducted except that 0.05 ml of an aqueous solution (0.1 mg/ml) of actinomycin D (manufactured by Sigma) which was known as an apoptosis-inducing reagent and 0.45 ml of a physiological saline solution were used instead of the above-mentioned heat-treated pectin solution.
Incidentally, in the control where the cells to which 0.5 ml of a physiological saline solution was added were incubated, such phenomena were not observed.
Further, to the cell suspension was added twice as much by volume of a 0.4% aqueous solution of trypan blue and an observation was conducted under an optical microscope whereby trypan blue was excreted and colorless cells and blue-colored cells were counted as viable and dead cells, respectively.

For `Cc1c2oc3c(C)ccc(C(=O)N[C@@H]4C(=O)N[C@H](C(C)C)C(=O)N5CCC[C@H]5C(=O)N(C)CC(=O)N(C)[C@@H](C(C)C)C(=O)O[C@@H]4C)c3nc-2c(C(=O)N[C@@H]2C(=O)N[C@H](C(C)C)C(=O)N3CCC[C@H]3C(=O)N(C)CC(=O)N(C)[C@@H](C(C)C)C(=O)O[C@@H]2C)c(N)c1=O` [actinomycin D] (I: T[dV]P[Sar][NMeV] / II: T[dV]P[Sar][NMeV]; ester I:1-I:C, II:1-II:C; linker I:N-II:N via Actinocin(9to1)), the “condensation of nuclei, contraction of cells and production of apoptotic body” value [1] was “condensation of nuclei, contraction of cells and production of apoptotic body were confirmed” and the “condensation of nuclei, contraction of cells and production of apoptotic body” value [2] was “condensation of nuclei, contraction of cells and production of apoptotic body were confirmed”.
